# Test results taken from ChEMBL document CHEMBL1149403, “Design, synthesis, and anti-Helicobacter pylori activity of erythromycin A (E)-9-oxime ether derivatives” (2006).
# Tested on: Helicobacter pylori
# Assay: Inhibitory activity against Helicobacter pylori NCTC-10638
# Format: functional
row,SMILES,MIC
1,CC[C@H]1OC(=O)[C@H](C)C(=O)[C@H](C)C(O[C@@H]2O[C@H](C)C[C@H](N(C)C)[C@@H]2O)[C@](C)(OC)C[C@@H](C)/C(=N\OCOc2ccccc2OC)[C@H](C)[C@@H](O)[C@]1(C)O (some centres not stated),0.04 µg/mL
2,CC[C@H]1OC(=O)[C@H](C)C(O[C@H]2C[C@](C)(OC)[C@@H](O)[C@@H](C)O2)[C@H](C)C(O[C@@H]2O[C@H](C)C[C@H](N(C)C)[C@@H]2O)[C@](C)(O)C[C@@H](C)/C(=N\OCOc2ccccc2OC)[C@H](C)[C@@H](O)[C@]1(C)O (some centres not stated),0.03 µg/mL
3,CC[C@H]1OC(=O)[C@H](C)C(=O)[C@H](C)C(O[C@@H]2O[C@H](C)C[C@H](N(C)C)[C@@H]2O)[C@](C)(OC)C[C@@H](C)/C(=N\OCOc2ccc(OC)cc2)[C@H](C)[C@@H](O)[C@]1(C)O (some centres not stated),0.02 µg/mL
4,CC[C@H]1OC(=O)[C@H](C)C(O[C@H]2C[C@](C)(OC)[C@@H](O)[C@@H](C)O2)[C@H](C)C(O[C@@H]2O[C@H](C)C[C@H](N(C)C)[C@@H]2O)[C@](C)(OC)C[C@@H](C)/C(=N\OCOc2ccccc2OC)[C@H](C)[C@@H](O)[C@]1(C)O (some centres not stated),0.02 µg/mL
5,CC[C@H]1OC(=O)[C@H](C)C(O[C@H]2C[C@](C)(OC)[C@@H](O)[C@@H](C)O2)[C@H](C)C(O[C@@H]2O[C@H](C)C[C@H](N(C)C)[C@@H]2O)[C@](C)(O)C[C@@H](C)/C(=N\OCOc2ccc(OC)cc2)[C@H](C)[C@@H](O)[C@]1(C)O (some centres not stated),0.02 µg/mL
6,CC[C@H]1OC(=O)[C@H](C)C(O[C@H]2C[C@](C)(OC)[C@@H](O)[C@@H](C)O2)[C@H](C)C(O[C@@H]2O[C@H](C)C[C@H](N(C)C)[C@@H]2O)[C@](C)(OC)C[C@@H](C)/C(=N\OCOc2ccc(OC)cc2)[C@H](C)[C@@H](O)[C@]1(C)O (some centres not stated),0.03 µg/mL
7,CC[C@H]1OC(=O)[C@H](C)[C@@H](O[C@H]2C[C@@](C)(OC)[C@@H](O)[C@H](C)O2)[C@H](C)[C@@H](O[C@@H]2O[C@H](C)C[C@H](N(C)C)[C@H]2O)[C@](C)(OC)C[C@@H](C)C(=O)[C@H](C)[C@@H](O)[C@]1(C)O [CLARITHROMYCIN],0.02 µg/mL
